The values that follow come from patent US20170101432A1, “CRYSTALLINE 3',5'-CYCLIC DIGUANYLIC ACID” (Yamasa Corporation, priority 2014, published 2017).

A short description of this series: Stability: storage at 50° C. in a desiccator containing saturated saline, HPLC purity measured. The class given is physicochemical. Particulars: for relative residual ratio: storage at 50° C., saturated saline desiccator. Here is the method: Note that the high performance liquid chromatography method was performed under the following condition. Column: Hydrosphere C18 (product of YMC Co., Ltd.) Eluate: 0.1M TEA-P (pH 6.0) Detection method: detection by UV 260 nm The crystals of 3′,5′-cyclic diguanylic acid of the present invention and the co-crystals with cobalt and the co-crystals with magnesium of Reference Examples were stored at 50° C. in a desiccator containing saturated saline, and HPLC purity of each of them was measured on days 0, 7, 31, 84 and 167 after the start of storage. The result of measurement of HPLC purity (%) is shown in Table 5 below and relative residual ratios (%) on each day for measurement after the start of storage, taking the purity of day 0 of measurement as 100%, are shown in Table 6.

Where [1] appears, read: day 0, purity of day 0 taken as 100%.
The mark [2] stands for this setting: day 0 after the start of storage at 50° C. in a desiccator containing saturated saline.
Setting [3] is: day 7, purity of day 0 taken as 100%.
The mark [4] stands for this setting: day 7 of storage at 50° C. in a desiccator containing saturated saline.
[5] abbreviates: day 31, purity of day 0 taken as 100%.
The mark [6] stands for this setting: day 31 of storage at 50° C. in a desiccator containing saturated saline.
Where [7] appears, read: day 84, purity of day 0 taken as 100%.
Where [8] appears, read: day 84 of storage at 50° C. in a desiccator containing saturated saline.
[9] abbreviates: day 167, purity of day 0 taken as 100%.
The mark [10] stands for this setting: day 167 of storage at 50° C. in a desiccator containing saturated saline.

For the compound `Nc1nc2c(ncn2C2OC3COP(=O)(O)OC4C(COP(=O)(O)OC3C2O)OC(n2cnc3c(=O)[nH]c(N)nc32)C4O)c(=O)[nH]1` (stereo not shown) [Co, 3′,5′-cyclic diguanylic acid], the relative residual ratio is, setting by setting: under setting [1], 100%; under setting [3], 100%; under setting [5], 99.8%; under setting [7], 99.8%; under setting [9], 99.6%. Further, the HPLC purity reads like this: under setting [2], 99.9%; under setting [4], 99.9%; under setting [6], 99.7%; under setting [8], 99.7%; under setting [10], 99.4%.
Take `Nc1nc2c(ncn2C2OC3COP(=O)(O)OC4C(COP(=O)(O)OC3C2O)OC(n2cnc3c(=O)[nH]c(N)nc32)C4O)c(=O)[nH]1` (stereo not shown) [Mg, 3′,5′-cyclic diguanylic acid]: the relative residual ratio under setting [1] was found to be 100%; the relative residual ratio under setting [3] is listed as 100%; the relative residual ratio under setting [5] stood at 99.8%; the relative residual ratio under setting [7] is 100.0%; the relative residual ratio under setting [9] came to 99.5%. The HPLC purity is, setting by setting: under setting [2], 99.8%; under setting [4], 99.7%; under setting [6], 99.6%; under setting [8], 99.8%; under setting [10], 99.3%.
As to `Nc1nc2c(ncn2[C@@H]2O[C@@H]3COP(=O)(O)OC4C(O)[C@H](n5cnc6c(=O)[nH]c(N)nc65)O[C@@H]4COP(=O)(O)OC3C2O)c(=O)[nH]1` (stereo partly shown) [Present Invention, 3′,5′-cyclic diguanylic acid], the “decrease rate of HPLC purity” value (after storing at 50° C. for 167 days in a desiccator containing saturated saline) is on record as “less than 1%”. The relative residual ratio is recorded as 100% under setting [1]; 100.1% under setting [3]; 99.6% under setting [5]; 99.9% under setting [7]; 100.0% under setting [9]. Also, the HPLC purity came to 99.0% under setting [2]; 99.1% under setting [4]; 98.6% under setting [6]; 98.9% under setting [8]; 98.9% under setting [10].
